Test system: HeLa S3 cells
Assay: Cytotoxicity experiments, percentage of viable cells by Casy-1 cell counter
Format: cell-based
Settings: 24 h incubation
Description: Cytotoxicity Experiments: HeLa S3 cells were seeded into 12-well tissue culture dishes in a density of approximately 80000 cells per well. The logarithmically growing cells were cultured for 24 h in Ham's F12 nutrient mixture containing 10% fetal bovine serum, 100 U penicillin per mL and […] streptomycin per mL and incubated at 37° C. with 5% CO2 in air and 100% humidity until the Pt-complexes were added. The cytotoxicity of the Pt-complexes was elucidated by quantifying the percentage of viable cells. Cell viability was measured after 24 h Pt-complex incubation and trypsinizing of cells, by an automatic cell counter (Casy-1, Roche Innovatis AG). These measurements are based on non-invasive (dye-free) electrical current exclusion with signal evaluation via pulse area analysis and allow the structural integrity of cells (membrane integrity and cell death).

C[S+](C)[O-] [DMSO]
DMSO concentration at which no toxic effect was detectable: Below 1.8%
cytotoxicity (2.5% DMSO): a high amount of viable Hela-S3 cells but still some dead cells were detected
cytotoxicity (DMSO concentration from 10% down to 5%): extremely toxic
